The values below come from ChEMBL document CHEMBL1124372, “Thienothiopyran-2-sulfonamides: novel topically active carbonic anhydrase inhibitors for the treatment of glaucoma” (J Med Chem, 1989).

The Ki is a dissociation constant, usually derived from enzyme kinetics or from competition with a known ligand. One may read the IC50 as the concentration that inhibits the measured activity by half. High values mean lower potency, low ones higher potency.

Data set [1] has as its target T1, Carbonic anhydrase 2 (Homo sapiens, UniProt P00918).
Data set [2] can be described thus: The aqueous solubility in 2% solution was determined; soluble. In kind it is physicochemical. The conditions noted are these: buffer.
The target of data set [3] is T1, Carbonic anhydrase 2. This is another data set of the same source.
The nature of data set [4]: Binding of 10 phosphate buffer. In kind it is protein assay. The conditions noted are these: Bos taurus.
The species entered for the next data set is Oryctolagus cuniculus. Briefly: Maximum fall in ocular hypertension in the right eye of albino rabbits. In kind it is functional.
The target in data set [5] is T1, Carbonic anhydrase 2. The source holds these as a separate data set.
Data set [6] in a line: The aqueous solubility in 2% solution was determined; insoluble. It counts as physicochemical. The conditions noted are these: buffer.
Data set [7] is described as follows: The aqueous solubility in 2% (+ = soluble, - = insoluble) solution was determined. In kind it is physicochemical. The conditions noted are these: buffer.

“And” between values parts separate entries of the source, which are not always exact repeats. Identical values can stand only once.

At Carbonic anhydrase 2 [1], `CCN(CC)C1CCS(=O)(=O)c2sc(S(N)(=O)=O)cc21.Cl` (stereo not drawn) displayed a Ki of 9.3 nM. The Aqueous solubility entry in data set [2] is “Soluble”. The IC50 against Carbonic anhydrase 2 [3] was found to be 70 nM; against Carbonic anhydrase 2 [5], 12.3 nM. The molecule also showed a Binding in data set [4] of 9%. Also, the Activity in the data set filed under Oryctolagus cuniculus is on record as -5.3 mmHg.

Turning to `NS(=O)(=O)c1cc2c(s1)S(=O)(=O)CCC2O` (stereo not drawn), in data set [2], the Aqueous solubility entry is on record as “Soluble”. Also, the Binding in data set [4] turned out to be 1.9%. Moreover, in the data set listed under Oryctolagus cuniculus, the Activity is -6.9 mmHg.

Turning to `CCNC1CCS(=O)(=O)c2sc(S(N)(=O)=O)cc21.Cl` (stereo not drawn), in data set [2], the Aqueous solubility entry is “Soluble”. In data set [4], this molecule came in with a Binding of 29.2%. In the data set filed under Oryctolagus cuniculus, this molecule gave an Activity of -4.2 mmHg.

Regarding `CC(C)CN[C@H]1CCS(=O)(=O)c2sc(S(N)(=O)=O)cc21`, the Binding in data set [4] is 12.3% and 12.8%.

For the molecule `CCCCNC1CCS(=O)(=O)c2sc(S(N)(=O)=O)cc21.Cl` (stereo not drawn), affinity on Carbonic anhydrase 2 [1] was put at a Ki of 1.8 nM. Further, the figures for the IC50 at Carbonic anhydrase 2 [3] and at Carbonic anhydrase 2 [5] were 12.4 nM and 2.3 nM, respectively. The same molecule returned a Binding in data set [4] of 25.6%. The molecule further gave an Activity in the data set filed under Oryctolagus cuniculus of -5.7 mmHg. Besides, the Aqueous solubility entry in data set [6] is recorded as “Insoluble”.

For `CC(C)CN[C@H]1CCS(=O)(=O)c2sc(S(N)(=O)=O)cc21.Cl` [SEZOLAMIDE HYDROCHLORIDE], in data set [2], the Aqueous solubility result was “Soluble”. The molecule also registered an Activity in the data set filed under Oryctolagus cuniculus of -6.5 mmHg.

As to `CCCNC1CCS(=O)(=O)c2sc(S(N)(=O)=O)cc21.Cl` (stereo not drawn), the Ki on Carbonic anhydrase 2 [1] was determined as 1.1 nM. Besides, the half-maximal inhibitory concentration (IC50) against Carbonic anhydrase 2 [3] turned out to be 9.2 nM; on Carbonic anhydrase 2 [5], 1.5 nM. In data set [4], this molecule displayed a Binding of 19.8%. The same molecule gave an Activity in the data set filed under Oryctolagus cuniculus of -8.7 mmHg. Moreover, the Aqueous solubility entry in data set [6] is listed as “Insoluble”.

`Cl.NC1CCS(=O)(=O)c2sc(S(N)(=O)=O)cc21` (stereo not drawn) showed a Ki on Carbonic anhydrase 2 [1] of 3.7 nM. For the same molecule, the Aqueous solubility result in data set [2] was “Soluble”. In addition, the IC50 is 9.2 nM against Carbonic anhydrase 2 [3] and 3.2 nM on Carbonic anhydrase 2 [5]. Moreover, in data set [4], the Binding stood at 32.1%. This molecule came in with an Activity in the data set filed under Oryctolagus cuniculus of -3.3 mmHg.

Regarding `CNC1CCS(=O)(=O)c2sc(S(N)(=O)=O)cc21.Cl` (stereo not drawn), the Ki on Carbonic anhydrase 2 [1] worked out at 2.3 nM. Moreover, the results for the concentration for half-maximal inhibition (IC50) on Carbonic anhydrase 2 [3] and at Carbonic anhydrase 2 [5] were 13.9 nM and 2.5 nM, respectively. Further, the Binding in data set [4] came out at 23.7%. The molecule also registered an Activity in the data set filed under Oryctolagus cuniculus of -3.3 mmHg. Besides, the Aqueous solubility entry in data set [7] was “Soluble”.

Consider `CC(C)CN[C@@H]1CCS(=O)(=O)c2sc(S(N)(=O)=O)cc21.Cl`, for which the Aqueous solubility entry in data set [2] is “Soluble”. Besides, in the data set filed under Oryctolagus cuniculus, the Activity is recorded as -1.3 mmHg.

Consider `CC(C)CN[C@H]1CCS(=O)(=O)c2sc(S(N)(=O)=O)cc21` [SEZOLAMIDE], for which the Aqueous solubility entry in data set [2] is given as “Soluble”. Moreover, the Activity in the data set filed under Oryctolagus cuniculus was -4.3 mmHg.
